Data set [1] concerns Pseudomonas spp. (P. aeruginosa) in sputum. The source says:
Patients were monitored for a further four weeks, bringing the total study time to 10 weeks.

How the values of data set [2] were obtained: Subjects with CF who need treatment with dry powder tobramycin will be allocated into four cohorts and receive 112 mg dry powder twice a day for 28 days. In addition, Cohort 1 (patients >18 years) will receive ascending doses of dry powder CaEDTA (37.5 mg BID for 1 week; 75 mg BID for 2 weeks, 150 mg BID for 1 week). Cohort 2 (patients >18 years) will receive CaEDTA (37.5 mg BID for 1 week; 75 BID for 2 weeks; 75 mg QID for 1 week). Cohort 3 (patients 12-18 years) will receive CaEDTA (37.5 mg BID for 1 week; 75 mg BID for 2 weeks, 150 mg BID for 1 week. Finally, an observational cohort will receive tobramycin alone for 28 days.
Sputum samples will be collected weekly and assessed for markers of infection and inflammation. Bacteria will be monitored by sputum colony counts. As a measure of structural damage, levels of matrix metalloproteinases (MMPs) and tissue inhibitors of metalloproteinases (TIMPs) are measured using gelatin zymography and immunoassays, respectively, as previously described (Gaggar et al., Eur Respir J. 2011 38(3): 721-727; Garratt et al., Eur Respir J. 2015 46(2):384-94). The amount of iron in the sputum is quantified by ICP-MS as previously described (Hunter et al., MBio. 2013 4(4):1-8). The amount of iron-binding proteins is assessed using immunoassays. Myeloperoxidase activity are also assayed as a measure of neutrophilic inflammation as previously described (Gaggar et al., Eur Respir J. 2011 38(3): 721-727). 3-chlorotyrosine is measured as a biomarker of the potent oxidant hypochlorous acid. Levels are measured using stable isotope dilution gas chromatography with mass spectrometry (Gaggar et al., Eur Respir J. 2011 38(3): 721-727). Protein carbonyls are measured as an indicator of reactive oxygen species (ROS) using a commercial immunoassay kit (Gaggar et al., Eur Respir J. 2011 38(3): 721-727). Oxidative stress is assessed by measuring glutathione (GSSG and GSH) using immunoassays as previously described (Kettle et al., Eur Respir J. 2014 44(1):122-9). Gene expression of inflammatory and oxidative stress markers (e.g. IL-8, IL-6, TNFa) will also be monitored by Nanostring, and proteins will be measured by ELISA. Oxidative stress can also be measured via metabolites, such as molondialdehyde (colorimetric assay) or 8-isoprostane (ELISA). Iron will be measured by elemental analysis using laser ablation-inductively coupled plasma-mass spectrometry (LA-ICP-MS).
This is another data set of the same source.

In data set [3] the test system is bacterial infections. The conditions noted are these: inhaled EDTA alone; cited from earlier work.
The conditions of data set [4]: in vivo; cited from earlier work.
For data set [5] the following is noted: in vivo; cited from earlier work. The source holds these as a separate data set.
How the values of data set [6] were obtained: Subjects are then discharged and treatment continued twice a day for four weeks. Subjects are monitored for a further four weeks, bringing the total study time to 10 weeks. Sputum is collected by induction with nebulised 3% hypertonic saline at 8-10 L/min for ≥5 minutes. Samples is collected prior to treatment, and at 2, 6 and 10 weeks, processed according to the relevant protocol and stored at −80° C.
Expectorated sputum is stored in RNAlater®, total RNA is extracted using a Qiagen RNEasy® or similar extraction kit, converted into cDNA, and inflammatory markers monitored using qPCR as described by Sivaneson et al. (Mol Microbiol 79, 1353-1366) and quantified relative to known housekeeping genes, such as actin and/or GAPDH.
Expectorated sputum is frozen directly without processing and assayed for inflammatory markers as above. As a measure of structural damage, levels of matrix metalloproteinases (MMPs) and tissue inhibitors of metalloproteinases (TIMPs) are measured using gelatin zymography and immunoassays, respectively as previously described (Gaggar et al., Eur Respir J. 2011 38(3): 721-727; Garratt et al., Eur Respir J. 2015 46(2):384-94). The amount of iron in the sputum is quantified by ICP-MS as previously described (Hunter et al., MBio. 2013 4(4):1-8). The amount of iron-binding proteins is assessed using immunoassays. Oxidative stress is assessed by measuring glutathione (GSSG and GSH) using immunoassays as previously described (Kettle et al., Eur Respir J. 2014 44(1):122-9).
This is another data set of the same source.

The procedure of data set [7]: Following discharge, treatment was continued twice a day for four weeks. Subjects were monitored for a further four weeks, bringing the total study time to 10 weeks.
At each study visit, lung function was measured by spirometry. Data was recorded as the best of three attempts, and results were expressed as % predicted.
This is another data set of the same source.

The subject of data set [8] is Lung epithelial cells. The conditions noted are these: versus controls. The method, then: Lung epithelial cells are grown in tissue culture and inflammation induced by exposure to Fe(II) or excess oxygen. The cells are treated with CaEDTA (0, 1, 5, 10, 25, 50 mM) for 30 min, 1, 3, 24 and 48 hours.
Immunoassays are used to monitor the change in inflammatory markers, such as IL-6, IL-8, TNF-α, neutrophil elastase and others. Oxidative stress and toxicity is measured by assessing reduced glutathione (GSH) levels and apoptosis based on a TUNEL assay, both using commercial assay kits such as ThermoFisher Scientific's Glutathione Fluorescent Detection Kit and BioVision Inc's TUNEL DNA Gragmentation Assay Kit.

In data set [9] the test system is P. aeruginosa biofilms. Description: Biofilms in suspended drops of cystic fibrosis mucus treated with nebulised/aerosolised agents. Type of data set: cell-based, Pseudomonas aeruginosa. The conditions noted are these: treated 5 min, incubated 16 hours; tobramycin 20 mg/ml, CaEDTA particles 10 mg/ml.
For data set [10] the following is noted: versus placebo. The protocol: A single centre, randomised, double blind, crossover study of cystic fibrosis subjects is carried out. Subjects are randomised for treatment with inhaled CaEDTA or saline (placebo) for two weeks.
Iron levels, inflammatory markers, MMP/TIMP and FEV1 are monitored as above. Myeloperoxidase activity is also assayed as a measure of neutrophilic inflammation as previously described (Gaggar et al., Eur Respir J. 2011 38(3): 721-727). 3-chlorotyrosine will be measured as a biomarker of the potent oxidant hypochlorous acid. Levels are measured using stable isotope dilution gas chromatography with mass spectrometry (Gaggar et al., Eur Respir J. 2011 38(3): 721-727). Protein carbonyls are measured as an indicator of reactive oxygen species (ROS) using a commercial immunoassay kit (Gaggar et al., Eur Respir J. 2011 38(3): 721-727).

Data set [11] has as its system Pseudomonas aeruginosa clinical strain. Description: MIC of tobramycin for the clinical strain used for biofilms. Type of data set: cell-based. The conditions noted are these: P. aeruginosa clinical strain.
The conditions of data set [12]: ten CF children, nebulised, three months; cited from earlier work.
[13] abbreviates: EDTA group versus placebo group.

Entries after “also recorded” stand apart in the source; their conditions may differ. Read-outs that look alike come from different tables or passages of the source. Where only a bound is given, the exact number is not on record here.

For `O=C([O-])CN(CCN(CC(=O)[O-])CC(=O)[O-])CC(=O)[O-].[Ca+2].[Na+].[Na+]` [CaEDTA, CaNa2EDTA], the “EDTA concentration in sputum” value (5 minutes after 75 mg nebulised CaEDTA, CF subjects) is 0.41 to 1.34 mM. Also, the “EDTA concentration inside mucus plugs” value (single dose of 75 mg CaEDTA, after 30 minutes) is “up to 1.34 mM”. For the same molecule, in data set [1] (CF subjects, nebulised CaEDTA versus saline), the “bacterial load in expectorated mucus” value is on record as “reduces the bacterial load in CF lungs faster than antibiotic treatment alone”.
In the case of `O=C(O)CN(CCN(CC(=O)O)CC(=O)O)CC(=O)O` [EDTA, ethylene diamine tetraacetic acid], in data set [2] (setting [13]), the “inflammatory markers in sputum” value is listed as “reduction in inflammatory markers” and the “iron levels in sputum” value is listed as “decrease in iron levels”. Further, the “balance between MMPs and TIMPs” value in [2] (especially MMP-9 and TIMP-1) is “change in the balance between MMPs and TIMPs”. Further, in data set [2] (versus control patients), the FEV1 result is “increase in FEV1” and the “bacterial load in sputum” value is “reduction of bacterial load in sputum”. Further, the “treatment of bacterial infections” value in [3] was “does not treat bacterial infections”. In addition, the “effect on FEV1” value in data set [4] is “no effect on FEV1”. The bronchoconstriction result in [5] was “concentration-dependent bronchoconstriction”. Further, in [6] (setting [13]), the “gene expression of inflammatory markers in sputum (qPCR)” value was “mean reduction in the gene expression of inflammatory markers” and the “inflammatory markers in sputum” value is recorded as “reduction in inflammatory markers”. In data set [6] (especially MMP-9 and TIMP-1), the “balance between MMPs and TIMPs” value was “change in the balance between MMPs and TIMPs”. Also, the “mean increase in FEV1” value in data set [7] (after 2 weeks, 300 mg EDTA/day, placebo 5% points) is 16 % points. In addition, the “increase in FEV1” value in data set [7] (four weeks after the treatment had been completed (10 weeks), placebo 2% point) is recorded as 7 % points. For the same molecule, in [7] (mg EDTA/kg body weight), the “effect on lung function” value is “dose-dependent effect on lung function”. For the same molecule, the “inflammatory markers (IL-6, IL-8, TNF-α, neutrophil elastase)” value in data set [8] (CaEDTA 0-50 mM, 30 min to 48 hours) is listed as “concentration dependent reduction in inflammatory markers”. Also, in [8], the “apoptosis (TUNEL assay)” value is on record as “reduced apoptosis” and the “reduced glutathione (GSH) levels” value is reported as “reduction in GSH”. Moreover, in [1] (after two weeks of treatment, 300 mg EDTA/day with tobramycin, placebo 4.5-fold), the “reduction in colony counts of P. aeruginosa (McC agar) versus start of treatment” value is listed as over 400 fold. The “biofilm viability / killing (BacLight LIVE/DEAD, confocal microscopy)” value in data set [9] was “some degree of killing; also recorded: kill P. aeruginosa biofilms and act synergistically with tobramycin”. Further, in data set [10], the MMP/TIMP balance entry was “altered MMP/TIMP balance”; the inflammatory markers entry is “reduced levels of iron and inflammatory markers”; the iron levels result was “reduced levels of iron”; the “mean FEV1” value is listed as “increased mean FEV1”. Also, in [10], the “mean levels of chlorotyrosine and carbonyls” value was “lower mean levels of chlorotyrosine and carbonyls”; the myeloperoxidase activity entry is recorded as “reduced myeloperoxidase activity”.
`NC[C@H]1O[C@H](O[C@H]2[C@H](O)[C@@H](O[C@H]3O[C@H](CO)[C@@H](O)[C@H](N)[C@H]3O)[C@H](N)C[C@@H]2N)[C@H](N)C[C@@H]1O` [tobramycin]: the MIC in data set [11] is over 256 µg/mL. Besides, the “biofilm viability / killing (BacLight LIVE/DEAD, confocal microscopy)” value in data set [9] was “little effect on viability”.
Regarding sodium EDTA, the lung function result in data set [12] was “no change in lung function”.

(Values after patent US11491126B2, “Method for reducing lung inflammation” (priority 2017, dated 2022).)
